The assay addresses CDK2 (UniProt P24941). Kind of assay: Enzyme Assay.

What is called IC50 is the concentration that gives 50% inhibition. Read a low IC50 as greater potency.

As for `NS(=O)(=O)c1ccc(N/C=C2\C(=O)Nc3cnccc32)cc1`, the IC50 lay within 10 to 100 nM. The figure for `NS(=O)(=O)c1ccc(N/C=C2\C(=O)Nc3ncc(-c4ccccc4)cc32)cc1` is 1000 to 10000 nM; for `O=C1Nc2ncc(-c3ccco3)cc2/C1=C/Nc1ccc2cn[nH]c2c1` it is 1000 to 10000 nM. As for `CCOC(=O)c1cnc2c(c1)/C(=C/Nc1ccc(S(N)(=O)=O)cc1)C(=O)N2`, the IC50 is 10 to 100 nM. For the molecule `O=C1Nc2ncc(Br)cc2/C1=C/Nc1ccc2ncccc2c1`, the half-maximal inhibitory concentration (IC50) is 10 to 100 nM. The figure for `NS(=O)(=O)c1ccc(N/C=C2\C(=O)Nc3ccncc32)cc1` is 10 to 100 nM. Take `O=C1Nc2nc(Cl)ccc2/C1=C/Nc1ccc2cn[nH]c2c1`: the 50% inhibitory concentration (IC50) is 100 to 1000 nM. The figure for `CCOC(=O)c1cnc2c(c1)/C(=C/Nc1ccc3cn[nH]c3c1)C(=O)N2` is 10 to 100 nM; for `NS(=O)(=O)c1ccc(N/C=C2\C(=O)Nc3nc(Cl)ccc32)cc1` it is 100 to 1000 nM. In turn, `NS(=O)(=O)c1ccc(N/C=C2\C(=O)Nc3ncccc32)cc1` showed a 50% inhibitory concentration (IC50) of 100 to 1000 nM. The figure for `O=C1Nc2ncc(-c3ccsc3)cc2/C1=C/Nc1ccc2cn[nH]c2c1` is 100 to 1000 nM; for `CCOC(=O)c1cnc2c(c1)/C(=C\Nc1ccc3ncccc3c1)C(=O)N2` it is 100 to 1000 nM; for `O=C1Nc2ncc(Br)cc2/C1=C/Nc1ccc2cn[nH]c2c1` it is 10 to 100 nM. In turn, `NS(=O)(=O)c1ccc(N/C=C2\C(=O)Nc3ncc(Br)cc32)cc1` came in with a half-inhibitory concentration (IC50) of 10 to 100 nM. In the case of `NS(=O)(=O)c1ccc(N/C=C2\C(=O)Nc3ncc(-c4ccsc4)cc32)cc1` it was 100 to 1000 nM; in that of `NS(=O)(=O)c1ccc(N/C=C2\C(=O)Nc3ncc(-c4ccco4)cc32)cc1`, 10 to 100 nM.

The record behind these values is the Kinase Knowledgebase extract (Sharma et al. 2016).
